Laboratory results reported in US7915448B2, “Substituted sulfonylaminoarylmethyl cyclopropanecarboxamide as VR1 receptor antagonists” (Pfizer Inc., priority 2005, dated 2011).
pIC50: −log10 of the molar value.

What was measured:
human VR1 receptors = molecular target: T1, human VR1 receptors (Homo sapiens, UniProt Q8NER1); assay: Human VR1 antagonist assay (Ca2+ imaging); format: cell-based; conditions: cells expressing human VR1, fura-2 Ca2+ imaging, FDSS 6000; capsaicin (300 nM) or acid (pH5.8) stimulation, table does not say which
T1 construct: host or cells: cells highly expressing human VR1; cell type not specified
T1 sequence (Q8NER1 whole entry): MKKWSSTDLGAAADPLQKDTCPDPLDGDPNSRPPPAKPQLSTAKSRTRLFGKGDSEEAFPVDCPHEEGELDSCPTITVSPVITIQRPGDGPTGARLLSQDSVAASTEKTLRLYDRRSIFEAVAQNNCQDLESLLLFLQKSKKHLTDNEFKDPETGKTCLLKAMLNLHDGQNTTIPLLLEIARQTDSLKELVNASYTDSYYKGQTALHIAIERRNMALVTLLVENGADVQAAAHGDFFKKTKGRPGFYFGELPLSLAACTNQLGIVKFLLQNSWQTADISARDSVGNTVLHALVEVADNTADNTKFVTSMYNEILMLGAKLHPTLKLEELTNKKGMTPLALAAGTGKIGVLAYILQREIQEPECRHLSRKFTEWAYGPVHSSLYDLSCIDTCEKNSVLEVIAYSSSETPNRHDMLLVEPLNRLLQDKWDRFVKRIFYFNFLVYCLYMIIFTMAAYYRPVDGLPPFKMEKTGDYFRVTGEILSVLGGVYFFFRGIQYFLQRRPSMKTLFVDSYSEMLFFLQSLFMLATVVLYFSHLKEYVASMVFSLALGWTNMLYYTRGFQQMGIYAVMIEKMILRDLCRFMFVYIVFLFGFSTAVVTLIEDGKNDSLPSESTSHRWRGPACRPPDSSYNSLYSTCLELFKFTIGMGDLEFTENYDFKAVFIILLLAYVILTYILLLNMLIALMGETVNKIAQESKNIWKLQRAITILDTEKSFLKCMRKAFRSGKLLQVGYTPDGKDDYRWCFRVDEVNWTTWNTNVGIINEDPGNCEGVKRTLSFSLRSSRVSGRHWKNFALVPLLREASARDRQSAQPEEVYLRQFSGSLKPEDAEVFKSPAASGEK
Description: Human VR1 Antagonist Assay
VR1 antagonistic activity can be determined by the Ca^2+ imaging assay using human VR1 highly expressing cells. The cells that highly express human VR1 receptors are obtainable from several different conventional methods. The one standard method is cloning from human Dorsal Root Ganglion (DRG) or kidney according to the methods such as described in the journal article; Nature, 389, pp 816-824, 1997. Alternatively VR1 receptors highly expressing human keratinocytes are also known and published in the journal article (Biochemical and Biophysical Research Communications, 291, pp 124-129, 2002). […] Further more, the method to up regulate human VR1 gene, which is usually a silent gene or don't produce detectable level of VR1 receptors, is also available to obtain propriety cells. Such genetic modification method was described in detail; Nat. Biotechnol., 19, pp 440-445, 2001.
The cells that express human VR1 receptors were maintained in culture flask at 37° C. in an environment containing 5% CO2 until use in the assay. The intracellular Ca^2+ imaging assay to determine VR1 antagonistic activities were done by following procedures.
The culture medium was removed from the flask and fura-2/AM fluorescent calcium indicator was added to the flask at a concentration of 5 μM in the medium. The flask was placed in CO2 incubator and incubated for 1 hour. Then the cells expressing the human VR1 receptors were detached from the flask follow by washing with phosphate buffer saline, PBS(−) and re-suspended in assay buffer. The 80 μl of aliquot of cell suspension (3.75×10^5 cells/ml) was added to the assay plate and the cells were spun down by centrifuge (950 rpm, 20° C., 3 minutes).
Capsaicin Stimulation Assay:
The capsaicin-induced changes in the intracellular calcium concentration were monitored using FDSS 6000 (Hamamatsu Photonics, Japan), a fluorometric imaging system. The cell suspension in Krebs-Ringer HEPES (KRH) buffer (115 mM NaCl, 5.4 mM KCl, 1 mM MgSO4, 1.8 mM CaCl2, 11 mM D-Glucose, 25 mM HEPES, 0.96 mM Na2HPO4, pH 7.3) were pre-incubated with varying concentrations of the test compounds or KRH buffer (buffer control) for 15 minutes at room temperature under the dark condition. Then capsaicin solution, which gives 300 nM in assay mixture, was automatically added to the assay plate by the FDSS 6000.
The Acid-induced changes in the intracellular calcium concentration were monitored using FDSS 6000 (Hamamatsu Photonics, Japan), a fluorometric imaging system. The cell suspension in resting buffer (HBSS supplemented with 10 mM HEPES, pH 7.4) were pre-incubated with varying concentrations of the test compounds or resting buffer (buffer control) for 15 minutes at room temperature under the dark condition. The cells were automatically added the stimulating solution (HBSS supplemented with MES, final assay buffer pH5.8) by the FDSS 6000.
Determination of Antagonist Activity
The monitoring of the changes in the fluorescence signals (λex=340 nm/380 nm, λem=510-520 nm) was initiated at 1 minute prior to the addition of capsaicin solution or acidic buffer and continued for 5 minute.

[1] = Half-life in Human Liver Microsomes (HLM); conditions: human, human liver microsomes (HL101), pH 7.4
Description: Test compounds (1 μM) were incubated with 3.3 mM MgCl2 and 0.78 mg/mL HLM (HL101) in 100 mM potassium phosphate buffer (pH 7.4) at 37° C. on the 96-deep well plate. The reaction mixture was split into two groups, a non-P450 and a P450 group. NADPH was only added to the reaction mixture of the P450 group. An aliquot of samples of P450 group was collected at 0, 10, 30, and 60 min time point, where 0 min time point indicated the time when NADPH was added into the reaction mixture of P450 group. An aliquot of samples of non-P450 group was collected at −10 and 65 min time point. Collected aliquots were extracted with acetonitrile solution containing an internal standard. The precipitated protein was spun down in centrifuge (2000 rpm, 15 min). The compound concentration in supernatant was measured by LC/MS/MS system.
The half-life value was obtained by plotting the natural logarithm of the peak area ratio of compounds/internal standard versus time. The slope of the line of best fit through the points yields the rate of metabolism (k).

Row | SMILES | pIC50 (human VR1 receptors) | half-life at 1 μM [1]
1 | C[C@@H](NC(=O)C1CC1(C)c1ccc(C(C)(C)C(F)(F)F)cc1)c1ccc(NS(C)(=O)=O)c(F)c1 (single isomer, unassigned) [Example 77] | 7.30 | 50 min
2 | Cc1cc([C@H](C)NC(=O)[C@H]2C[C@]2(C)c2ccc(C(F)(F)F)cc2)ccc1NS(C)(=O)=O (single isomer, unassigned) [Example 82] | 7.21 | 26 min
3 | CC(C)(C)c1ccc(C2CC2C(=O)NCc2ccc(NS(C)(=O)=O)c(F)c2)cc1 (stereo not drawn) [Example 1, 2-(4-tert-Butylphenyl)-N-{3-fluoro-4-[(methylsulfonyl)amino]benzyl}cyclopropanecarboxamide] | 6.48 | 13 min
4 | Cc1cc([C@@H](C)NC(=O)C2CC2c2ccc(C(C)(C)C)c(F)c2)ccc1NS(C)(=O)=O (stereo partly drawn) [Example 2, 2-(4-tert-Butyl-3-fluorophenyl)-N-((1R)-1-{3-methyl-4-[(methylsulfonyl)amino]phenyl}ethyl)cyclopropanecarboxamide] | 7.95 | 32 min
5 | Cc1cc(CNC(=O)C2CC2c2ccc(C(C)(C)C)c(F)c2)ccc1NS(C)(=O)=O (stereo not drawn) [Example 4, 2-(4-tert-Butyl-3-fluorophenyl)-N-{3-methyl-4-[(methylsulfonyl)amino]benzyl}cyclopropanecarboxamide] | 6.72 | 9 min
6 | Cc1cc(CNC(=O)C2CC2(C)c2ccc(C(C)(C)C)cc2)ccc1NS(C)(=O)=O (stereo not drawn) [Example 5, 2-(4-tert-Butylphenyl)-2-methyl-N-{3-methyl-4-[(methylsulfonyl)amino]benzyl}cyclopropanecarboxamide] | 7.40 | 5 min
7 | Cc1cc(CNC(=O)C2CC2c2ccc(C(C)(C)C(F)(F)F)cc2)ccc1NS(C)(=O)=O (stereo not drawn) [Example 6, N-{3-Methyl-4-[(methylsulfonyl)amino]benzyl}-2-[4-(2,2,2-trifluoro-1,1-dimethylethyl)phenyl]cyclopropanecarboxamide] | 7.74 | 18 min
8 | C[C@@H](NC(=O)C1CC1c1ccc(C(C)(C)C)cc1)c1ccc(NS(C)(=O)=O)c(F)c1 (stereo partly drawn) [Example 8, 2-(4-tert-Butylphenyl)-N-((1R)-1-{3-fluoro-4-[(methylsulfonyl)amino]phenyl}ethyl)cyclopropanecarboxamide] | 7.42 | 37 min
9 | Cc1nc([C@@H](C)NC(=O)C2CC2(C)c2ccc(C(C)(C)C(F)(F)F)cc2)ccc1NS(C)(=O)=O (stereo partly drawn) [Example 9, 2-Methyl-N-((1R)-1-{6-methyl-5-[(methylsulfonyl)amino]pyridin-2-yl}ethyl)-2-[4-(2,2,2-trifluoro-1,1-dimethylethyl)phenyl]cyclopropanecarboxamide] | 6.77 | 42 min
10 | Cc1cc([C@@H](C)NC(=O)C2CC2(C)c2ccc(C(C)(C)C)nc2)ccc1NS(C)(=O)=O (stereo partly drawn) [Example 10, 2-(6-tert-Butylpyridin-3-yl)-2-methyl-N-((1R)-1-{3-methyl-4-[(methylsulfonyl)amino]phenyl}ethyl)cyclopropanecarboxamide] | 8.44 | 22 min
11 | Cc1cc([C@@H](C)NC(=O)C2CC2(C)c2ccc(C(F)(F)F)nc2)ccc1NS(C)(=O)=O (stereo partly drawn) [Example 12, 2-Methyl-N-((1R)-1-{3-methyl-4-[(methylsulfonyl)amino]phenyl}ethyl)-2-[6-(trifluoromethyl)pyridin-3-yl]cyclopropanecarboxamide] | 7.57 | 83 min
12 | Cc1nc([C@@H](C)NC(=O)[C@H]2C[C@]2(C)c2ccc(C(F)(F)F)cc2)ccc1NS(C)(=O)=O [Example 14, (1S,2S)-2-Methyl-N-((1R)-1-{6-methyl-5-[(methylsulfonyl)amino]pyridin-2-yl}ethyl)-2-[4-(trifluoromethyl)phenyl]cyclopropanecarboxamide] | 6.69 | > 120 min
13 | Cc1cc([C@@H](C)NC(=O)[C@H]2C[C@]2(C)c2ccc(C(F)(F)F)cc2)ccc1NS(C)(=O)=O [Example 15, (1S,2S)-2-Methyl-N-((1R)-1-{3-methyl-4-[(methylsulfonyl)amino]phenyl}ethyl)-2-[4-(trifluoromethyl)phenyl]cyclopropanecarboxamide] | 9.15 | 38 min
14 | Cc1cc([C@@H](C)NC(=O)C2CC2(C)c2ccc(OC(F)(F)F)cc2)ccc1NS(C)(=O)=O (stereo partly drawn) [Example 16, 2-Methyl-N-((1R)-1-{3-methyl-4-[(methylsulfonyl)amino]phenyl}ethyl)-2-[4-(trifluoromethoxy)phenyl]cyclopropanecarboxamide] | 8.18 | 53 min
15 | C[C@@H](NC(=O)C1CC1c1ccc(C(C)(C)C(F)(F)F)cc1)c1ccc(NS(C)(=O)=O)c(F)c1 (stereo partly drawn) [Example 18, N-((1R)-1-{3-Fluoro-4-[(methylsulfonyl)amino]phenyl}ethyl)-2-[4-(2,2,2-trifluoro-1,1-dimethylethyl)phenyl]cyclopropanecarboxamide] | 6.55 | 119 min
16 | Cc1cc([C@@H](C)NC(=O)C2CC2c2ccc(C(F)(F)F)cc2)ccc1NS(C)(=O)=O (stereo partly drawn) [Example 19a, N-((1R)-1-{3-Methyl-4-[(methylsulfonyl)amino]phenyl}ethyl)-2-[4-(trifluoromethyl)phenyl]cyclopropanecarboxamide] | 7.64 | > 120 min
17 | C[C@@H](NC(=O)C1CC1c1ccc(C(F)(F)F)cc1)c1ccc(NS(C)(=O)=O)c(CO)c1 (stereo partly drawn) [Example 20, N-((1R)-1-{3-(Hydroxymethyl)-4-[(methylsulfonyl)amino]phenyl}ethyl)-2-[4-(trifluoromethyl)phenyl]cyclopropanecarboxamide] | 7.33 | > 120 min
18 | C[C@@H](NC(=O)[C@H]1C[C@]1(C)c1ccc(C(F)(F)F)cc1)c1ccc(NS(C)(=O)=O)cc1 [Example 21, (1S,2S)-2-Methyl-N-((1R)-1-{4-[(methylsulfonyl)amino]phenyl}ethyl)-2-[4-(trifluoromethyl)phenyl]cyclopropanecarboxamide] | 7.70 | > 120 min
19 | C[C@@H](NC(=O)[C@H]1C[C@]1(C)c1ccc(C(F)(F)F)cc1)c1ccc(NS(C)(=O)=O)c(CO)c1 [Example 22, (1S,2S)-N-((1R)-1-{3-(Hydroxymethyl)-4-[(methylsulfonyl)amino]phenyl}ethyl)-2-methyl-2-[4 (trifluoromethyl)phenyl]cyclopropanecarboxamide] | 8.92 | 37 min
20 | C[C@@H](NC(=O)[C@H]1C[C@]1(C)c1ccc(C(F)(F)F)cc1)c1ccc(NS(C)(=O)=O)c(F)c1 [Example 23, (1S,2S)-N-((1R)-1-{3-Fluoro-4-[(methylsulfonyl)amino]phenyl}ethyl)-2-methyl-2-[4-(trifluoromethyl)phenyl]cyclopropanecarboxamide] | 7.96 | > 120 min
21 | Cc1cc([C@@H](C)NC(=O)C2CC2(C)c2ccc(SC(F)(F)F)cc2)ccc1NS(C)(=O)=O (stereo partly drawn) [Example 24, 2-Methyl-N-((1R)-1-{3-methyl-4-[(methylsulfonyl)amino]phenyl}ethyl)-2-{4-[(trifluoromethyl)thio]phenyl}cyclopropanecarboxamide] | 7.71 | 23 min
22 | C[C@@H](NC(=O)C1CC1(C)c1ccc(SC(F)(F)F)cc1)c1ccc(NS(C)(=O)=O)c(CO)c1 (stereo partly drawn) [Example 25] | 7.58 | 30 min
23 | Cc1cc([C@@H](C)NC(=O)C2CC2(C)c2ccc(S(=O)(=O)C(F)(F)F)cc2)ccc1NS(C)(=O)=O (stereo partly drawn) [Example 26, 2-Methyl-N-((1R)-1-{3-methyl-4-[(methylsulfonyl)amino]phenyl}ethyl)-2-{4-[(trifluoromethyl)sulfonyl]phenyl}cyclopropanecarboxamide] | 7.11 | 38 min
24 | Cc1cc([C@@H](C)NC(=O)C2CC2(C)c2ccc(C(C)(C)C(F)(F)F)cc2)ccc1NS(C)(=O)=O (stereo partly drawn) [Example 27] | 8.11 | 25 min
